Patent US9695155B2, “Herbicidal substituted pyrimidinyloxy benzene compounds” (E. I. DU PONT DE NEMOURS AND COMPANY, priority 2013, dated 2017)

Tests used:
barnyardgrass [1] = assay: Test B flooded paddy test; format: in vivo, Echinochloa crus-galli; settings: Flood, 250 g ai/ha; 0 to 100 scale where 0 is no effect and 100 is complete control
In short: (§1)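 2-leaf stage plants; pots flooded to 3 cm, compound added to paddy water, depth maintained. Greenhouse 13–15 d. Visual rating vs untreated controls, 0 (no effect) to 100 (complete control); dash = no result.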

ragweed [2] = assay: Test A postemergence; format: in vivo, Ambrosia elatior
In short: (§2)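 Injury scores run from 0, no effect, to 100, complete control, judged by eye against untreated plants roughly 10 days after treatment. Chemicals carried a surfactant in a non-phytotoxic solvent and went onto loam–sand soil preemergence or onto one- to two-leaf seedlings postemergence.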

giant foxtail [3] = assay: Test A preemergence; format: in vivo, Setaria faberii; settings: for Plant response rating, Foxtail, Giant: 0 to 100 scale where 0 is no effect and 100 is complete control
In short: as §2

kochia [4] = assay: Test A preemergence; format: in vivo, Kochia scoparia; settings: for Plant response rating, Kochia: 0 to 100 scale where 0 is no effect and 100 is complete control
In short: as §2

Italian ryegrass [5] = assay: Test A preemergence; format: in vivo, Lolium multiflorum; settings: for Plant response rating, Ryegrass, Italian: 0 to 100 scale where 0 is no effect and 100 is complete control
In short: as §2

ragweed [6] = assay: Test A preemergence; format: in vivo, Ambrosia elatior; settings: for Plant response rating, Ragweed: 0 to 100 scale where 0 is no effect and 100 is complete control
In short: as §2

giant foxtail [7] = assay: Test A postemergence; format: in vivo, Setaria faberii
In short: as §2

barnyardgrass [8] = assay: Test A postemergence; format: in vivo, Echinochloa crus-galli
In short: as §2

barnyardgrass [9] = assay: Test A preemergence; format: in vivo, Echinochloa crus-galli; settings: for Plant response rating, Barnyardgrass: 0 to 100 scale where 0 is no effect and 100 is complete control
In short: as §2

blackgrass = assay: Test A postemergence; format: in vivo, Alopecurus myosuroides
In short: as §2

sedge, umbrella = assay: Test B flooded paddy test; format: in vivo, Cyperus difformis; settings: Flood, 250 g ai/ha; 0 to 100 scale where 0 is no effect and 100 is complete control
In short: as §1

rice = assay: Test B flooded paddy test; format: in vivo, Oryza sativa; settings: Flood, 250 g ai/ha; 0 to 100 scale where 0 is no effect and 100 is complete control
In short: as §1

galium = assay: Test A postemergence; format: in vivo, Galium aparine
In short: as §2

corn = assay: Test A postemergence; format: in vivo, Zea mays
In short: as §2

Heteranthera limosa = assay: Test B flooded paddy test; format: in vivo; settings: Flood, 250 g ai/ha; 0 to 100 scale where 0 is no effect and 100 is complete control
In short: as §1

wheat = assay: Test A postemergence; format: in vivo, Triticum aestivum
In short: as §2

pigweed [10] = assay: Test A postemergence; format: in vivo, Amaranthus retroflexus
In short: as §2

kochia [11] = assay: Test A postemergence; format: in vivo, Kochia scoparia
In short: as §2

Italian ryegrass [12] = assay: Test A postemergence; format: in vivo, Lolium multiflorum
In short: as §2

pigweed [13] = assay: Test A preemergence; format: in vivo, Amaranthus retroflexus; settings: for Plant response rating, Pigweed: 0 to 100 scale where 0 is no effect and 100 is complete control
In short: as §2

[14] = 31 g ai/ha, 0 to 100 scale, 0 no effect, 100 complete control
[15] = 125 g ai/ha, 0 to 100 scale where 0 is no effect and 100 is complete control
[16] = 31 g ai/ha, visual, approximately 10 days
[17] = 500 g ai/ha, 0 to 100 scale where 0 is no effect and 100 is complete control
[18] = 500 g ai/ha, 0 to 100 scale, 0 no effect, 100 complete control, approx. 10 days
[19] = 125 g ai/ha, 0 to 100 scale, 0 no effect, 100 complete control

CCCOc1cnn(-c2c(F)cccc2Oc2ncc(F)cn2)c1 [Compound 153]
30: Plant response rating, Ducksalad (Heteranthera limosa)
0: Plant response rating, Barnyardgrass (barnyardgrass [1]) | Plant response rating, Ragweed (ragweed [2]; [14]) | Ragweed plant response rating (ragweed [2]; [15]) | Plant response rating, Foxtail, Giant (giant foxtail [3]; [16]) | Plant response rating, Foxtail, Giant (giant foxtail [3]; 125 g ai/ha) | Plant response rating, Kochia (kochia [4]; [16]) | Plant response rating, Kochia (kochia [4]; 125 g ai/ha) | Plant response rating, Ryegrass, Italian (Italian ryegrass [5]; [16]) | Plant response rating, Ryegrass, Italian (Italian ryegrass [5]; 125 g ai/ha) | Plant response rating, Ragweed (ragweed [6]; [16]) | Plant response rating, Ragweed (ragweed [6]; 125 g ai/ha) | Plant response rating, Foxtail, Giant (giant foxtail [7]; [14]) | Foxtail, Giant plant response rating (giant foxtail [7]; [15]) | Plant response rating, Barnyardgrass (barnyardgrass [8]; [14]) | Barnyardgrass plant response rating (barnyardgrass [8]; [15]) | Plant response rating, Barnyardgrass (barnyardgrass [9]; [16]) | Plant response rating, Barnyardgrass (barnyardgrass [9]; 125 g ai/ha) | Plant response rating, Blackgrass (blackgrass; [14]) | Blackgrass plant response rating (blackgrass; [15]) | Plant response rating, Sedge, Umbrella (sedge, umbrella) | Plant response rating, Rice (rice) | Plant response rating, Galium (galium; [14]) | Galium plant response rating (galium; [15]) | Plant response rating, Corn (corn; [14]) | Corn plant response rating (corn; [15]) | Plant response rating, Wheat (wheat; [14]) | Wheat plant response rating (wheat; [15]) | Plant response rating, Pigweed (pigweed [10]; [14]) | Pigweed plant response rating (pigweed [10]; [15]) | Plant response rating, Kochia (kochia [11]; [14]) | Kochia plant response rating (kochia [11]; [15]) | Plant response rating, Ryegrass, Italian (Italian ryegrass [12]; [14]) | Ryegrass, Italian plant response rating (Italian ryegrass [12]; [15]) | Plant response rating, Pigweed (pigweed [13]; [16]) | Plant response rating, Pigweed (pigweed [13]; 125 g ai/ha)

N#Cc1cccc(Oc2ncc(I)cn2)c1-n1cc(I)cn1 [Compound 87]
60: Plant response rating, Foxtail, Giant (giant foxtail [3]; 125 g ai/ha) | Kochia plant response rating (kochia [4]; [18]) | Plant response rating, Foxtail, Giant (giant foxtail [7]; [17]) | Plant response rating, Galium (galium; [15]) | Plant response rating, Pigweed (pigweed [10]; [15])
30: Plant response rating, Kochia (kochia [4]; 125 g ai/ha) | Plant response rating, Ryegrass, Italian (Italian ryegrass [12]; [15])
10: Plant response rating, Ragweed (ragweed [6]; 125 g ai/ha) | Barnyardgrass plant response rating (barnyardgrass [9]; [18])
40: Plant response rating, Blackgrass (blackgrass; [15]) | Plant response rating, Ryegrass, Italian (Italian ryegrass [12]; [17])
20: Ragweed plant response rating (ragweed [6]; [18]) | Plant response rating, Foxtail, Giant (giant foxtail [7]; [15]) | Plant response rating, Barnyardgrass (barnyardgrass [8]; [15]) | Plant response rating, Barnyardgrass (barnyardgrass [8]; [17]) | Plant response rating, Corn (corn; [15]) | Plant response rating, Corn (corn; [17])
50: Plant response rating, Ragweed (ragweed [2]; [15]) | Plant response rating, Blackgrass (blackgrass; [17]) | Plant response rating, Kochia (kochia [11]; [15])
100: Plant response rating, Pigweed (pigweed [10]; [17]) | Pigweed plant response rating (pigweed [13]; [18])
70: Plant response rating, Ragweed (ragweed [2]; [17]) | Foxtail, Giant plant response rating (giant foxtail [3]; [18])
0: Plant response rating, Barnyardgrass (barnyardgrass [1]) | Plant response rating, Ryegrass, Italian (Italian ryegrass [5]; 125 g ai/ha) | Ryegrass, Italian plant response rating (Italian ryegrass [5]; [18]) | Plant response rating, Barnyardgrass (barnyardgrass [9]; 125 g ai/ha) | Plant response rating, Sedge, Umbrella (sedge, umbrella) | Plant response rating, Rice (rice) | Plant response rating, Ducksalad (Heteranthera limosa) | Plant response rating, Wheat (wheat; [15]) | Plant response rating, Wheat (wheat; [17])
90: Plant response rating, Galium (galium; [17]) | Plant response rating, Kochia (kochia [11]; [17]) | Plant response rating, Pigweed (pigweed [13]; 125 g ai/ha)

Fc1cnc(Oc2ccccc2-n2cc(SC(F)(F)F)cn2)nc1 [Compound 247]
100: Foxtail, Giant plant response rating (0 to 100 scale) (giant foxtail [3]; 125 g ai/ha)
80: Pigweed plant response rating (0 to 100 scale) (pigweed [13]; 125 g ai/ha)
40: Plant response rating, Blackgrass (blackgrass; [19]) | Plant response rating, Kochia (kochia [11]; [19])
20: Plant response rating, Barnyardgrass (barnyardgrass [8]; [19]) | Plant response rating, Corn (corn; [19]) | Plant response rating, Wheat (wheat; [19]) | Plant response rating, Pigweed (pigweed [10]; [19]) | Plant response rating, Kochia (kochia [11]; [14])
50: Plant response rating, Sedge, Umbrella (sedge, umbrella)
60: Kochia plant response rating (0 to 100 scale) (kochia [4]; 125 g ai/ha)
10: Plant response rating, Foxtail, Giant (giant foxtail [7]; [19]) | Plant response rating, Galium (galium; [14]) | Plant response rating, Pigweed (pigweed [10]; [14])
30: Plant response rating, Galium (galium; [19])
70: Barnyardgrass plant response rating (0 to 100 scale, 0 is no effect, 100 is complete control) (barnyardgrass [9]; 125 g ai/ha)
65: Plant response rating, Ducksalad (Heteranthera limosa)
0: Plant response rating, Barnyardgrass (barnyardgrass [1]) | Plant response rating, Ragweed (ragweed [2]; [14]) | Plant response rating, Ragweed (ragweed [2]; [19]) | Plant response rating, Foxtail, Giant (giant foxtail [3]; [16]) | Plant response rating, Kochia (kochia [4]; [16]) | Plant response rating, Ryegrass, Italian (Italian ryegrass [5]; [16]) | Ryegrass, Italian plant response rating (0 to 100 scale) (Italian ryegrass [5]; 125 g ai/ha) | Plant response rating, Ragweed (ragweed [6]; [16]) | Ragweed plant response rating (0 to 100 scale) (ragweed [6]; 125 g ai/ha) | Plant response rating, Foxtail, Giant (giant foxtail [7]; [14]) | Plant response rating, Barnyardgrass (barnyardgrass [8]; [14]) | Plant response rating, Barnyardgrass (barnyardgrass [9]; [16]) | Plant response rating, Blackgrass (blackgrass; [14]) | Plant response rating, Rice (rice) | Plant response rating, Corn (corn; [14]) | Plant response rating, Wheat (wheat; [14]) | Plant response rating, Ryegrass, Italian (Italian ryegrass [12]; [14]) | Plant response rating, Ryegrass, Italian (Italian ryegrass [12]; [19]) | Plant response rating, Pigweed (pigweed [13]; [16])

FCCc1cn(-c2c(F)cccc2Oc2ncc(Cl)cn2)nn1 [Compound 108]
90: Plant response rating, Foxtail, Giant (giant foxtail [3]; 125 g ai/ha) | Plant response rating, Galium (galium; [15]) | Plant response rating, Kochia (kochia [11]; [15]) | Pigweed plant response rating (0 to 100 scale) (pigweed [13]; 31 g ai/ha)
20: Plant response rating, Ragweed (ragweed [2]; [14]) | Foxtail, Giant plant response rating (0 to 100 scale) (giant foxtail [3]; 31 g ai/ha) | Plant response rating, Foxtail, Giant (giant foxtail [7]; [14]) | Plant response rating, Barnyardgrass (barnyardgrass [8]; [14]) | Plant response rating, Corn (corn; [14])
40: Kochia plant response rating (0 to 100 scale) (kochia [4]; 31 g ai/ha)
70: Plant response rating, Kochia (kochia [4]; 125 g ai/ha) | Ragweed plant response rating (0 to 100 scale) (ragweed [6]; 31 g ai/ha) | Plant response rating, Foxtail, Giant (giant foxtail [7]; [15]) | Plant response rating, Barnyardgrass (barnyardgrass [9]; 125 g ai/ha) | Plant response rating, Galium (galium; [14]) | Plant response rating, Kochia (kochia [11]; [14])
60: Plant response rating, Barnyardgrass (barnyardgrass [8]; [15])
85: Plant response rating, Ducksalad (Heteranthera limosa)
100: Plant response rating, Pigweed (pigweed [13]; 125 g ai/ha)
80: Plant response rating, Ragweed (ragweed [6]; 125 g ai/ha) | Plant response rating, Blackgrass (blackgrass; [15]) | Plant response rating, Sedge, Umbrella (sedge, umbrella)
30: Plant response rating, Ryegrass, Italian (Italian ryegrass [5]; 125 g ai/ha) | Plant response rating, Blackgrass (blackgrass; [14]) | Plant response rating, Corn (corn; [15])
10: Barnyardgrass plant response rating (0 to 100 scale) (barnyardgrass [9]; 31 g ai/ha) | Plant response rating, Wheat (wheat; [14])
0: Plant response rating, Barnyardgrass (barnyardgrass [1]) | Ryegrass, Italian plant response rating (0 to 100 scale) (Italian ryegrass [5]; 31 g ai/ha) | Plant response rating, Ryegrass, Italian (Italian ryegrass [12]; [14])
35: Plant response rating, Rice (rice)
50: Plant response rating, Pigweed (pigweed [10]; [14])
